Test results: patent US20240376097A1, “BCL-2 Inhibitor” (BeiGene Ltd., priority 2020, published 2024)
Where two headings read alike, the source gives them in different places.

Tests used:
[1] = test system: BCL-2 G101V knock-in cell line H96 (derive from RS4;11); test: Bcl 2-G101V Knock-In RS4;11 Cell Proliferation Assay; format: cell-based; conditions: Homo sapiens, RS4-11, 48 h, RS4;11 Bcl-2 G101V knock-in clone H96, 48 hrs, CellTiter-GLO, read-out: Cellular proliferation assay (IC50, nM) RS4
How it was run: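 H96, a CRISPR-generated RS4;11 clone carrying BCL2-G101V knock-in (WES/RNA-seq validated), seeded 50,000 per well and exposed 48 h at 37 °C to 10-point dilutions topping at 1 or 10 μM. Viability by CellTiter-Glo luminescence; mean IC50.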

[2] = molecular target: Recombinant human Bcl-2 protein (Homo sapiens (Human), UniProt P10415); test: Bcl-2 TR-FRET Assay; format: binding
How it was run: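 Compounds were pre-incubated with 0.05 nM recombinant Bcl-2 for 0.5 h at room temperature in potassium phosphate buffer, pH 7.5. FITC-Bak peptide (0.5 nM) and Tb-cryptate antibody were then added for 1 h. Percent inhibition from TR-FRET signals gave IC50 values.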

[3] = molecular target: recombinant human Bcl-2 D103Y protein (Homo sapiens (Human), UniProt P10415, D103Y); test: Bcl-2-D103Y Biochemical Assay (TR-FRET); format: binding; conditions: for IC50: TR-FRET, FITC labeled Bak peptide; for Ratio of Bcl-2 D103Y/Bcl-2 WT: ratio of IC50
How it was run: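 Recombinant human Bcl-2 D103Y binding to its ligand measured by TR-FRET (ex 337 nm, em 490/520 nm) with increasing compound concentrations. Percent inhibition from the 490/520 nm ratio; IC50 from four-parameter logistic fit.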

[4] = Bcl-2 wild type, TR-FRET, read-out: Biochemical assay (IC50, nM) Bcl-2 WT
[5] = wild type Bcl-2, unit inferred, read-out: Bcl-2 WT

Recombinant human Bcl-2 protein, sequence (P10415 whole entry): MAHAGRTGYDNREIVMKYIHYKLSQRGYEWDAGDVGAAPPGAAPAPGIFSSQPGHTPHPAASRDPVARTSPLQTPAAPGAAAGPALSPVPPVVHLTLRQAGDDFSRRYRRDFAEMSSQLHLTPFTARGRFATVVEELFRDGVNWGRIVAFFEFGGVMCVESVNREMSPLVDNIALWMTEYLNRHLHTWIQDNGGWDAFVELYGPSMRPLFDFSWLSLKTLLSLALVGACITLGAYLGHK
recombinant human Bcl-2 D103Y protein, sequence (P10415 whole entry D103Y): as the sequence (P10415 whole entry) above, with D103Y counted along it

`CC(C)c1ccccc1C1CN(Cc2cccc(F)c2)CCN1C1CC2(CCN(c3ccc(C(=O)NS(=O)(=O)c4ccc(NC[C@H]5CC[C@](C)(O)CC5)c([N+](=O)[O-])c4)c(Oc4cnc5[nH]ccc5c4)c3)CC2)C1` (stereo partly drawn) [Example 43, 2-((1H-pyrrolo[2,3-b]pyridin-5-yl)oxy)-4-(2-(4-(3-fluorobenzyl)-2-(2-isopropylphenyl)piperazin-1-yl)-7-azaspiro[3.5]nonan-7-yl)-N-((4-((((1r,4r)-4-hydroxy-4-methylcyclohexyl)methyl)amino)-3-nitrophenyl)sulfonyl)benzamide] gave an IC50 [1] of 3.27 nM, an IC50 [2, 4] of 0.31 nM and an IC50 [2, 5] of 0.31 nM. The IC50 [3] was 0.83 nM and the “Ratio of Bcl-2 D103Y/Bcl-2 WT” value [3] was 2.7.
With `[2H]C([2H])([2H])Oc1ccc(CN2CCN(C3CC4(CCN(c5ccc(C(=O)NS(=O)(=O)c6ccc(NC[C@H]7CC[C@](C)(O)CC7)c([N+](=O)[O-])c6)c(Oc6cnc7[nH]cc(F)c7c6)c5)CC4)C3)[C@H](c3ccccc3C(C)C)C2)cc1OC([2H])([2H])[2H]` [Example 198, 4-(2-((R)-4-(3,4-bis(methoxy-d3)benzyl)-2-(2-isopropylphenyl)piperazin-1-yl)-7-azaspiro[3.5]nonan-7-yl)-2-((3-fluoro-1H-pyrrolo[2,3-b]pyridin-5-yl)oxy)-N-((4-((((1r,4r)-4-hydroxy-4-methylcyclohexyl)methyl)amino)-3-nitrophenyl)sulfonyl)benzamide] the IC50 [1] was 0.27 nM, the IC50 [2, 4] was 0.072 nM and the IC50 [2, 5] was 0.072 nM. The IC50 [3] was 0.08 nM and the “Ratio of Bcl-2 D103Y/Bcl-2 WT” value [3] was 1.1.
`CC(C)c1ccccc1C1CN(Cc2ccc(Cl)cc2)CCN1C1CC2(CCN(c3ccc(C(=O)NS(=O)(=O)c4ccc(NC[C@H]5CC[C@](C)(O)CC5)c([N+](=O)[O-])c4)c(Oc4cnc5[nH]ccc5c4)c3)CC2)C1` (stereo partly drawn) [Example 29, 2-((1H-pyrrolo[2,3-b]pyridin-5-yl)oxy)-4-(2-(4-(4-chlorobenzyl)-2-(2-isopropylphenyl)piperazin-1-yl)-7-azaspiro[3.5]nonan-7-yl)-N-((4-((((1r,4r)-4-hydroxy-4-methylcyclohexyl)methyl)amino)-3-nitrophenyl)sulfonyl)benzamide] gave an IC50 [1] of 2.95 nM, an IC50 [2, 4] of 0.29 nM and an IC50 [2, 5] of 0.29 nM. For the same compound, the IC50 [3] was 0.57 nM and the “Ratio of Bcl-2 D103Y/Bcl-2 WT” value [3] was 1.9.
`COc1ccc(CN2CCN(C3CC4(CCN(c5ccc(C(=O)NS(=O)(=O)c6ccc(NC[C@H]7CC[C@](C)(O)CC7)c([N+](=O)[O-])c6)c(Oc6cnc7[nH]ccc7c6)c5)CC4)C3)C(c3ccccc3C(C)C)C2)c(OC)c1` (stereo partly drawn) [Example 48] showed an IC50 [1] of 1.9 nM, an IC50 [2, 4] of 0.072 nM and an IC50 [2, 5] of 0.072 nM. The IC50 [3] was 0.2 nM and the “Ratio of Bcl-2 D103Y/Bcl-2 WT” value [3] was 2.8.
With `COc1cc(CN2CCN(C3CC4(C3)CN(c3ccc(C(=O)NS(=O)(=O)c5ccc(NC[C@H]6CC[C@](C)(O)CC6)c([N+](=O)[O-])c5)c(Oc5cnc6[nH]cc(F)c6c5)c3)C4)[C@H](c3ccccc3C(C)C)C2)ccc1N1CCOCC1` [Example 361, 2-((3-fluoro-1H-pyrrolo[2,3-b]pyridin-5-yl)oxy)-N-((4-((((1r,4r)-4-hydroxy-4-methylcyclohexyl)methyl)amino)-3-nitrophenyl)sulfonyl)-4-(6-((R)-2-(2-isopropylphenyl)-4-(3-methoxy-4-morpholinobenzyl)piperazin-1-yl)-2-azaspiro[3.3]heptan-2-yl) benzamide] the IC50 [1] was 0.13 nM, the IC50 [2, 4] was 0.051 nM and the IC50 [2, 5] was 0.048 nM. The IC50 [3] was 0.079 nM and the “Ratio of Bcl-2 D103Y/Bcl-2 WT” value [3] was 1.6.
With `CC(C)c1ccccc1C1CN(Cc2ccc(C(F)(F)F)cc2)CCN1C1CC2(CCN(c3ccc(C(=O)NS(=O)(=O)c4ccc(NC[C@H]5CC[C@](C)(O)CC5)c([N+](=O)[O-])c4)c(Oc4cnc5[nH]ccc5c4)c3)CC2)C1` (stereo partly drawn) [Example 41, 2-((1H-pyrrolo[2,3-b]pyridin-5-yl)oxy)-N-((4-((((1r,4r)-4-hydroxy-4-methylcyclohexyl)methyl)amino)-3-nitrophenyl)sulfonyl)-4-(2-(2-(2-isopropylphenyl)-4-(4-(trifluoromethyl)benzyl)piperazin-1-yl)-7-azaspiro[3.5]nonan-7-yl) benzamide] the IC50 [1] was 7.2 nM, the IC50 [2, 4] was 0.83 nM and the IC50 [2, 5] was 0.83 nM. The IC50 [3] was 3.1 nM and the “Ratio of Bcl-2 D103Y/Bcl-2 WT” value [3] was 3.7.
Compound `COc1ccc(CN2CCN(C3CC4(CCN(c5ccc(C(=O)NS(=O)(=O)c6ccc(NC[C@H]7CC[C@](C)(O)CC7)c([N+](=O)[O-])c6)c(Oc6cnc7[nH]ccc7c6)c5)CC4)C3)[C@H](c3ccccc3C(C)C)C2)cc1` [Example 19a, 2-((1H-pyrrolo[2,3-b]pyridin-5-yl)oxy)-N-((4-((((1r,4r)-4-hydroxy-4-methylcyclohexyl)methyl)amino)-3-nitrophenyl)sulfonyl)-4-(2-((R)-2-(2-isopropylphenyl)-4-(4-methoxybenzyl)piperazin-1-yl)-7-azaspiro[3.5]nonan-7-yl)benzamide] has an IC50 [1] of 0.57 nM, an IC50 [2, 4] of 0.057 nM and an IC50 [2, 5] of 0.057 nM. The IC50 [3] was 0.15 nM, the “ratio of Bcl-2 D103Y/Bcl-2 wt, compared with F91b in WO2019210828” value ([3]; comparison in words) was “significantly lower” and the “Ratio of Bcl-2 D103Y/Bcl-2 WT” value [3] was 2.6.
In the case of `CC(C)c1ccccc1[C@@H]1CN(Cc2cccc3c2OCCO3)CCN1C1CC2(CCN(c3ccc(C(=O)NS(=O)(=O)c4ccc(NC[C@H]5CC[C@](C)(O)CC5)c([N+](=O)[O-])c4)c(Oc4cnc5[nH]ccc5c4)c3)CC2)C1` [Example 79a, 2-((1H-pyrrolo[2,3-b]pyridin-5-yl)oxy)-4-(2-(R-4-((2,3-dihydrobenzo [b][1,4]dioxin-5-yl)methyl)-2-(2-isopropylphenyl)piperazin-1-yl)-7-azaspiro[3.5]nonan-7-yl)-N-((4-((((1r,4r)-4-hydroxy-4-methylcyclohexyl)methyl)amino)-3-nitrophenyl)sulfonyl)benzamide], the IC50 [1] is reported as 0.48 nM, the IC50 [2, 4] is reported as 0.11 nM and the IC50 [2, 5] is reported as 0.11 nM. For the same compound, the IC50 [3] was 0.2 nM and the “Ratio of Bcl-2 D103Y/Bcl-2 WT” value [3] was 1.9.
With `COc1ccc(CN2CCN(C3CC4(C3)CN(c3ccc(C(=O)NS(=O)(=O)c5ccc(NC[C@H]6CC[C@](C)(O)CC6)c([N+](=O)[O-])c5)c(Oc5cnc6[nH]ccc6c5)c3)C4)[C@H](c3ccccc3C(C)C)C2)cc1` [Example 147, 2-((1H-pyrrolo[2,3-b]pyridin-5-yl)oxy)-N-((4-((((1r,4r)-4-hydroxy-4-methylcyclohexyl)methyl)amino)-3-nitrophenyl)sulfonyl)-4-(6-((R)-2-(2-isopropylphenyl)-4-(4-methoxybenzyl)piperazin-1-yl)-2-azaspiro[3.3]heptan-2-yl) benzamide] the IC50 [1] was 0.588 nM, the IC50 [2, 4] was 0.054 nM and the IC50 [2, 5] was 0.054 nM. The IC50 [3] was 0.086 nM and the “Ratio of Bcl-2 D103Y/Bcl-2 WT” value [3] was 1.6.
Work on `COc1cc(CN2CCN(C3CC4(C3)CN(c3ccc(C(=O)NS(=O)(=O)c5ccc(NC[C@H]6CC[C@](C)(O)CC6)c([N+](=O)[O-])c5)c(Oc5cnc6[nH]cc(F)c6c5)c3)C4)[C@H](c3ccccc3C(C)C)C2)cc2cc(C)oc12` [Example 338, 2-((3-fluoro-1H-pyrrolo[2,3-b]pyridin-5-yl)oxy)-N-((4-((((1r,4r)-4-hydroxy-4-methylcyclohexyl)methyl)amino)-3-nitrophenyl)sulfonyl)-4-(6-((R)-2-(2-isopropylphenyl)-4-((7-methoxy-2-methylbenzofuran-5-yl)methyl)piperazin-1-yl)-2-azaspiro[3.3]heptan-2-yl)benzamide] yielded an IC50 [1] of 0.15 nM, an IC50 [2, 4] of 0.59 nM and an IC50 [2, 5] of 0.59 nM. The IC50 [3] was 1 nM and the “Ratio of Bcl-2 D103Y/Bcl-2 WT” value [3] was 1.7.
Compound `COc1ccc(CN2CCN(C3CC4(CCN(c5ccc(C(=O)NS(=O)(=O)c6ccc(NC[C@H]7CC[C@](C)(O)CC7)c([N+](=O)[O-])c6)c(Oc6cnc7[nH]ccc7c6)c5)CC4)C3)[C@H](c3ccccc3C(C)C)C2)cc1OC` [Example 81a, 2-((1H-pyrrolo[2,3-b]pyridin-5-yl)oxy)-4-(2-((R)-4-(3,4-dimethoxybenzyl)-2-(2-isopropylphenyl)piperazin-1-yl)-7-azaspiro[3.5]nonan-7-yl)-N-((4-((((1r,4r)-4-hydroxy-4-methylcyclohexyl)methyl)amino)-3-nitrophenyl)sulfonyl)benzamide] has an IC50 [1] of 0.48 nM and an IC50 [2, 4] of 0.038 nM.
With `COc1cc(CN2CCN(C3CC4(C3)CN(c3ccc(C(=O)NS(=O)(=O)c5ccc(NC[C@H]6CC[C@](C)(O)CC6)c([N+](=O)[O-])c5)c(Oc5cnc6[nH]cc(F)c6c5)c3)C4)[C@H](c3ccccc3C(C)C)C2)cc(F)c1OC` [Example 230, 2-((3-fluoro-1H-pyrrolo[2,3-b]pyridin-5-yl)oxy)-4-(6-((R)-4-(3-fluoro-4,5-dimethoxybenzyl)-2-(2-isopropylphenyl)piperazin-1-yl)-2-azaspiro[3.3]heptan-2-yl)-N-((4-((((1r,4r)-4-hydroxy-4-methylcyclohexyl)methyl)amino)-3-nitrophenyl)sulfonyl)benzamide] the IC50 [1] was 0.28 nM and the IC50 [2, 4] was 0.19 nM.
Work on `COc1cc(CN2CCN(C3CC4(CCN(c5ccc(C(=O)NS(=O)(=O)c6ccc(NC[C@H]7CC[C@](C)(O)CC7)c([N+](=O)[O-])c6)c(Oc6cnc7[nH]ccc7c6)c5)CC4)C3)[C@H](c3ccccc3C(C)C)C2)ccc1C1CC1` [Example 257] yielded an IC50 [1] of 0.53 nM and an IC50 [2, 4] of 0.4 nM.
